Data taken from article PMC10069031 (European Journal of Medical Research, 2023).
Read-outs that look alike come from different tables or passages of the source.

Tests used:
[1] = tested on: CCL2; assay: CCL2 in MC38 tumors; type: in vivo, mouse; conditions: REG 5 and 10 mg/kg/day
Procedure: For tumors, snap-frozen tissue was subjected to cryogenic grinding using a Mixer Mill MM 400 and stainless steel beads (7 mm in diameter; Retsch) and subsequently lysed in Tris Lysis Buffer (Meso Scale Diagnostics). The lysates were centrifuged at 25,000 g at 4 °C for 10 min, protein concentrations were determined using the 660 nm protein assay kit (Pierce), and 2–20 μg of lysate was used for CCL2 analysis. CCL2 concentrations were related to the amounts of tumor tissue taken for the lysis procedure.
Five analysis of variance (ANOVA) models were applied to analyze the log10-transformed values of the tumor weight in the CT26 study, the CCL2 levels in the tumor in the CT26 and MC38 studies, and the CCL2 levels in the PB in the CT26 and MC38 studies. The standard assumption of equal variances between treatment groups was applied for all endpoints, except for CCL2 levels in the tumor in the MC38 study, for which unequal variances between treatment groups were allowed. A negative binomial regression model was applied to evaluate percentages of CD115^hi and F4/80^hi cells within the CD45^+ cell population in PB and tumor tissue, respectively.
In vivo passaging was initiated by transplanting fragments of cryo-preserved MC38 tumors of early passages (<p5) subcutaneously into 6–8-week-old female C57BL/6 mice. […]

[2] = target: T1, murine CSF1R (Mus musculus, UniProt P09581); assay: CSF1R inhibition in RAW264.7 cells (western blot of pCSF1R); type: cell-based
T1 construct: Western blot analysis of total lysates (40 µg/lane) from mouse RAW264.7 cells treated as indicated; endogenous in cells; host or cells: RAW264.7 (murine macrophages)
T1 sequence (P09581 20-977): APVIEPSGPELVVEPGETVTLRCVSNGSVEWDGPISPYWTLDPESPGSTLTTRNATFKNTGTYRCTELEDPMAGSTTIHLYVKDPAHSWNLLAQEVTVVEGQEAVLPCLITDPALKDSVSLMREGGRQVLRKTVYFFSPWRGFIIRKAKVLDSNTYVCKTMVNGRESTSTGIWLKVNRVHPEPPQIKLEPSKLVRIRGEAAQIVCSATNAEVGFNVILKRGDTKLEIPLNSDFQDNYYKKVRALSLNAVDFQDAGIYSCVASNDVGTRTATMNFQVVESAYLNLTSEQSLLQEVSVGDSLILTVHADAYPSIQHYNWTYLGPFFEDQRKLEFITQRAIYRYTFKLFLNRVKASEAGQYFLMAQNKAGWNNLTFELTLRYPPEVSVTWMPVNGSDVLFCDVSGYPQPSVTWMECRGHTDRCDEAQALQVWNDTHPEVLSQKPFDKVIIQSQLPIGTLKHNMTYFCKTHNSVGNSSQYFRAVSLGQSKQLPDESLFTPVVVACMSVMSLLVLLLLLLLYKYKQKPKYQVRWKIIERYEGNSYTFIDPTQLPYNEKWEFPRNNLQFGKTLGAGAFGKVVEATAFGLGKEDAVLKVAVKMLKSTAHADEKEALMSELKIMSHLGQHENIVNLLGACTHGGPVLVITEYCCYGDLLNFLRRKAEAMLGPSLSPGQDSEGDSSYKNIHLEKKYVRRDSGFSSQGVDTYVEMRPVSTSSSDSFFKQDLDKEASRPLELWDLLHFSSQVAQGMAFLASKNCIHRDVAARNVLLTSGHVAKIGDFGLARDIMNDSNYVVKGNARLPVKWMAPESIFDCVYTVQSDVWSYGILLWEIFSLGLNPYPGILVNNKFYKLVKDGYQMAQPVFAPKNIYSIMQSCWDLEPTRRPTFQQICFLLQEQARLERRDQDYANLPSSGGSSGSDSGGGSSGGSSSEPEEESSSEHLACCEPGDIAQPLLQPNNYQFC
Procedure: RAW264.7 cells (10^6) were seeded into cell culture dishes 6 cm in diameter and incubated in 4 mL RPMI/10% fetal bovine serum (Biochrom) for 24 h at 37 °C in a humidified 5% CO2 atmosphere. Cells were washed once with phosphate-buffered saline (PBS) and starved in 3 mL RPMI/0.1% bovine serum albumin for another 24 h. Cells were then treated for 1 h at 37 °C with drugs at the indicated final concentrations, with 0.5% DMSO as vehicle control, or left untreated, and finally stimulated for 2 min at 37 °C with 100 ng/mL recombinant mouse CSF1 (R&D Systems) by adding 1 mL prewarmed starving medium containing 400 ng/mL CSF1. Dishes were placed on ice and cells were immediately washed with ice-cold PBS and lysed with 50 µL lysis buffer (50 mM HEPES pH 7.5, 150 mM NaCl, 1.5 mM MgCl2, 10% glycerol, 1% Triton X-100, 0.5% desoxycholate, 0.2% sodium dodecyl sulfate, 1 mM ethylene glycol-bis[β-aminoethyl ether]-N,N,N′,N′-tetraacetic acid, 100 mM NaF, 10 mM Na4P2O7, 1 mM Na3VO4, 1% Phosphatase Inhibitor Cocktail 3 [Sigma-Aldrich], 1 mM phenylmethyl sulfonyl fluoride, Complete Protease Inhibitor Cocktail [Roche CustomBiotech; 1 tablet/10 mL], and 50 U/mL Benzonase [Sigma-Aldrich]). Lysed cells were scraped into Eppendorf tubes, incubated on ice for 20 min, and centrifuged at 4 °C for 10 min at 13,000 rpm; supernatants (lysates) were transferred into new tubes and stored at −80 °C.
Protein concentrations were determined using Pierce bicinchoninic acid assay (Thermo Fisher Scientific) and 40 µg/lane of total lysate was separated by SDS-PAGE on 4–12% Criterion XT Bis–Tris Gels (Bio-Rad) and subsequently transferred to polyvinylidene difluoride membranes using the Trans Blot Turbo Blotting System (Bio-Rad). For antigen detection, membranes were blocked with PBS Odyssey blocking reagent (LI-COR Biosciences) for 1 h at room temperature (RT). Primary antibodies were incubated overnight at 4 °C and the fluorescent secondary antibodies were incubated for 1 h at RT. After each antibody incubation, blots were washed with PBS with 0.05% Tween 20 (Carl Roth) for 15–30 min at RT. Fluorescent signals were quantitatively captured using the Odyssey DLx Infrared Imaging System (LI-COR Biosciences) and the half-maximal inhibitory concentration (IC50) values were calculated using GraphPad software (version 7 or newer).

IC50 ([2]; RAW264.7 cells, drug 1 h, CSF1 100 ng/mL 2 min, mean ± SD (replicates), M-4, M-5 from pCSF1R bands without relating to total CSF1R, read-out: Mean kinase IC50 values: P(Y559)CSF1R [WB]): 59 ± 16 nM
IC50 ([2]; RAW264.7 cells, drug 1 h, CSF1 100 ng/mL 2 min, mean ± SD (replicates), M-4, M-5 from pCSF1R bands without relating to total CSF1R, read-out: Mean kinase IC50 values: P(Y721)CSF1R [WB]): 27 ± 14 nM
IC50 ([2]; approximate value of the discussion, read-out: IC50, murine CSF1R in RAW264.7 macrophages): ~30 nM
Compound: CNC(=O)c1cc(Oc2ccc(NC(=O)Nc3ccc(Cl)c(C(F)(F)F)c3)c(F)c2)ccn1 [REG, Regorafenib]
CCL2 concentrations in MC38 tumors [1]: dose dependently increased
